How the values were obtained:
LNCaP cells = experiment: MTS cell proliferation assay, androgen-dependent LNCaP cells; type: cell-based, human; conditions: 50 μM
Experimental: Cell proliferation assays were performed using the 3-(4,5-dimethylhiazol-2-yl)-5-(3-carboxymethoxyphenyl)-2-(4-sulfophenyl)-2H-tetrazolium Assay (MTS) according to the manufacturer's protocol, with minor modifications (Promega). LNCaP cells were plated in 96-well plates at a density of 3000 cells per well and incubated in RPMI medium containing 5% CSS for one day. On the following day, the DDC inhibitors, carbidopa (25 and 50 μM) and NSD-1015 (10 μM)±0.1 nM R1881 were added to each well in charcoal-stripped serum (CSS; Hyclone, VWR) RPMI media. The cells were harvested at days 0, 2, 4, 6 and 8, with a medium change every 3 days. Each time point was measured with 6 replicates.
(§1) Student's t-test (two-sample equal variance) was used to evaluate statistically significant differences. All calculated p-values were two-sided and those less than 0.05 were considered statistically significant.

[1] = tested on: parental LNCaP xenografts; experiment: Parental LNCaP tumour xenografts in castrated mice, progression to androgen-independence; type: in vivo
Experimental: Parental LNCaP cells were inoculated subcutaneously (s.c.), after resuspension in 0.1 mL of Matrigel (Becton Dickinson Labware), into two flank regions (2.5×10^6 cells/site) of 6 to 8 week old male athymic nude mice (Harlan Sprague Dawley, Inc.) via a 27-gauge needle under halothane anesthesia. Tumour volume and serum PSA measurements (blood collected from the tail vein) were performed once per week after tumours became palpable. PSA levels were measured by ELISA (ClinPro International) and tumour size was calculated by the formula; length×width×depth×0.5236. Once serum PSA values reached 75-100 ng/mL, mice were castrated and treated with or without carbidopa. Carbidopa was purchased from Sigma and dissolved in DMSO. The solution was diluted in PBS to a final concentration of 10% DMSO and sterilized through a 0.2 μm filter. Carbidopa solution was injected intraperitoneally into half of the mice (25 mg per kg of body weight) for the +carbidopa group, while the remaining mice received vehicle injections consisting of 10% DMSO in PBS (−carbidopa group). Injections were carried out daily for the duration of the experiment. Each animal group contained 5-6 mice. Serum PSA and tumour volume values were measured with progression to androgen-independence and normalized to pretreatment values (set at 100%) to obtain the mean percentage PSA and mean tumour volume of pre-treatment (±SEM). All animal procedures were performed according to the guidelines of the Canadian Council of Animal Care and with appropriate institutional certification. Statistical analysis was performed using the Student's t-test (two-sample equal variance) with JMPIN statistical software (Version 4.0.2, SAS Institute Inc.).

LNCaP-DDC xenografts = experiment: LNCaP-DDC (DDC overexpressing) tumour xenografts with carbidopa treatment; type: in vivo, mice; conditions: 25 mg/kg intraperitoneally daily, Dox
Experimental: (§2) LNCaP-DDC and LNCaP-Vector control cells were inoculated subcutaneously (s.c.), after resuspension in 0.1 mL of Matrigel (Becton Dickinson Labware), into two flank regions (2.5×10^6 cells/site) of 6 to 8 week old male athymic nude mice (Harlan Sprague Dawley, Inc.) via a 27-gauge needle under halothane anesthesia. Tumour volume and serum PSA measurements (blood collected from the tail vein) were performed once per week after tumours became palpable. PSA levels were measured by ELISA (ClinPro International) and tumour size was calculated by the formula; length×width×depth×0.5236. Once serum PSA values reached 75-100 ng/mL, mice in both the LNCaP-DDC and LNCaP-Vector control groups were given Dox-treated water (200 μg/mL) and treated with or without carbidopa. Carbidopa was purchased from Sigma and dissolved in DMSO. The solution was diluted in PBS to a final concentration of 10% DMSO and sterilized through a 0.2 μm filter. Carbidopa solution was injected intraperitoneally into half of the mice (25 mg per kg of body weight) for the +carbidopa groups, while the remaining mice received vehicle injections consisting of 10% DMSO in PBS (−carbidopa groups). Injections were carried out daily for the duration of the experiment. […] PSA velocity and tumour growth rate differences were determined by one-way ANOVA and Tukey's multiple comparison test. […]

[2] = tested on: neuroendocrine cancer cell lines; conditions: including a carcinoid cancer and a small cell lung cancer cell line; cited from earlier work
DU 145 = conditions: cited from earlier work
[3] = tested on: LNCaP-Vector control xenografts; experiment: LNCaP-Vector control tumour xenografts with carbidopa treatment; type: in vivo, mice; conditions: 25 mg/kg intraperitoneally daily, Dox, endogenous DDC only
Experimental: as §2

C4-2 cells = experiment: MTS cell proliferation assay, androgen-independent C4-2 cells; type: cell-based, human; conditions: 25 μM
Experimental: Cell proliferation assays were performed using the 3-(4,5-dimethylhiazol-2-yl)-5-(3-carboxymethoxyphenyl)-2-(4-sulfophenyl)-2H-tetrazolium Assay (MTS) according to the manufacturer's protocol, with minor modifications (Promega). C4-2 cells were plated in 96-well plates at a density of 750 cells per well in RPMI medium containing 5% CSS for 1 day. On the following day, the DDC inhibitors, carbidopa (25 μM) and NSD-1015 (10 μM)±0.1 nM R1881 were added to each well in charcoal-stripped serum (CSS; Hyclone, VWR) RPMI media. The cells were harvested at days 0, 2, 4, and 6, with a medium change every 3 days. Each time point was measured with 6 replicates.
as §1

[4] = tested on: pure neuroendocrine tumour; conditions: in combination with other drugs; implanted prostate NE cancer cells; cited from earlier work

C[C@@](Cc1ccc(O)c(O)c1)(NN)C(=O)O [carbidopa, α-Methyl-dopahydrazine]
reduction of number of cells relative to control non-treated cells (LNCaP cells; day 8, absence of androgen): 1.42 fold
reduction of number of cells relative to control non-treated cells (LNCaP cells; day 8, presence of androgen (0.1 nM R1881)): 1.69 fold
decrease in PSA level with treatment versus control group ([1]; 11 weeks): 4.3 fold
decrease in tumour growth versus control group ([1]; 11 weeks): 5.4 fold
tumour volume, of pre-treatment ([1]; castrated mice, 25 mg/kg i.p. daily, 11 weeks): 478±97%
serum PSA level, of pre-treatment ([1]; castrated mice, 25 mg/kg i.p. daily, 11 weeks (termination)): 167±36%
serum PSA level, of pre-treatment ([1]; castrated mice, 25 mg/kg i.p. daily, week 1): 38±5%
serum PSA level, of pre-treatment ([1]; castrated mice, 25 mg/kg i.p. daily, week 10): 148±34%
increase of tumour volume from pre-treatment volume ([1]; over 11 weeks): about 5 fold
PSA velocity (rate of PSA production) (LNCaP-DDC xenografts; over 35 days, PSA normalized to pre-treatment 100%): 14.7±0.6
tumour growth rate (LNCaP-DDC xenografts; over 49 days, volume normalized to pre-treatment 100%): 22.5±3
lethality to cancer cell lines [2]: lethal to several but not all tested neuroendocrine cancer cell lines
effect on proliferation (DU 145): did not affect proliferation
PSA velocity (rate of PSA production) ([3]; over 35 days): 7.2±1
tumour growth rate ([3]; over 49 days): 9.8±2
reduction of number of cells relative to control non-treated cells (C4-2 cells; day 6, absence of androgen): 1.58 fold
reduction of number of cells relative to control non-treated cells (C4-2 cells; day 6, presence of androgen (0.1 nM R1881)): 1.80 fold
reduction of tumour growth [4]: 40%

From patent US8324280B2, “Treatment of prostate cancer with DDC inhibitor” (The University of British Columbia, priority 2008, dated 2012)
